Several values for one entry are separate records, joined by “and”; a condition that tells them apart may be missing. Identical values can stand only once. Like-named read-outs stand apart in the source and are kept apart here.

The test system of data set [1] is FLT3. To be noted: cited from earlier work.
A short description of data set [2]: Plasma concentrations of midostaurin and metabolites.
Data set [3] in a line: clinical. Conditions: human, plasma, intravenous, cycle 1, day 1; for AUC(0-t): AUC (0–24 h); for concentration at 24 h: C24 h.
Setting [4] is: Concomitant (days 1-7 and 15-21), 50 mg BID, Induction cycle 1, day 1.
[5] abbreviates: Concomitant, 50 mg BID, First consolidation cycle, day 15.5.
Where [6] appears, read: Concomitant, 50 mg BID, Induction cycle 1, Day 1 (+ 2 h).
The mark [7] stands for this setting: Concomitant, 50 mg BID, Induction cycle 1, Day 1 (+ 4 h).
The mark [8] stands for this setting: Concomitant, 50 mg BID, Induction cycle 1, day 2.
The mark [9] stands for this setting: Concomitant, 50 mg BID, Induction cycle 1, day 4.
The mark [10] stands for this setting: Concomitant, 50 mg BID, Induction cycle 1, day 15 (+ 2 h).
[11] abbreviates: Concomitant, 50 mg BID, Induction cycle 1, day 15 (+ 4 h).
The mark [12] stands for this setting: Sequential (days 8-21), 50 mg BID, Induction cycle 1, day 8.
The mark [13] stands for this setting: Sequential, 50 mg BID, First consolidation cycle, day 1.5.
[14] abbreviates: Sequential, 50 mg BID, First consolidation cycle, day 15.5.
Where [15] appears, read: Sequential, 50 mg BID, First consolidation cycle, day 29.5.
[16] abbreviates: Sequential, 50 mg BID, Induction cycle 1, day 8 (+ 2 h).
Setting [17] is: Sequential, 50 mg BID, Induction cycle 1, day 8 (+ 4 h).
The mark [18] stands for this setting: Sequential, 50 mg BID, Induction cycle 1, day 9.
[19] abbreviates: Sequential, 50 mg BID, Induction cycle 1, day 15.
The mark [20] stands for this setting: Sequential, 50 mg BID, Induction cycle 1, day 22.5.
[21] abbreviates: Sequential, 50 mg BID, Induction cycle 1, day 29.5.
[22] abbreviates: Concomitant midostaurin n = 13, cycle 1, day 1.
The mark [23] stands for this setting: Sequential midostaurin n = 13, cycle 1, day 1.
Where [24] appears, read: Mean ± SD, Concomitant midostaurin n = 13.
Where [25] appears, read: Mean ± SD, Sequential midostaurin n = 13.
Where [26] appears, read: Median, Concomitant midostaurin n = 13.
Setting [27] is: Median, Sequential midostaurin n = 13.

As for `CO[C@@H]1[C@H](N(C)C(=O)c2ccccc2)C[C@H]2O[C@]1(C)n1c3ccccc3c3c4c(c5c6ccccc6n2c5c31)C(=O)N[C@H]4O` [CGP52421], the “Inhibition of FLT3 in vitro” value in data set [1] is on record as “capable of inhibiting FLT3 in vitro”. Moreover, the “Plasma concentration, Max” value is “LLOQ” in data set [2] (setting [4]); 810 ng/mL in data set [2] (setting [5]); 812 ng/mL in data set [2] (setting [6]); 209 ng/mL in data set [2] (setting [7]); 460 ng/mL in data set [2] (setting [8]); 1090 ng/mL in data set [2] (setting [9]). Besides, the “Plasma concentration, Max” value is 1920 ng/mL in data set [2] (setting [10]); 1860 ng/mL in data set [2] (setting [11]); “LLOQ” in data set [2] (setting [12]); 3110 ng/mL in data set [2] (setting [13]); 4210 ng/mL in data set [2] (setting [14]); 5320 ng/mL in data set [2] (setting [15]). Besides, the “Plasma concentration, Max” value in data set [2] (setting [16]) is on record as 194 ng/mL; in data set [2] (setting [17]), 207 ng/mL; in data set [2] (setting [18]) it was 414 ng/mL; in data set [2] (setting [19]), 1670 ng/mL; in data set [2] (setting [20]) it was 3540 ng/mL; in data set [2] (setting [21]), 3330 ng/mL. For the same compound, the “Plasma concentration, Median” value is reported as “LLOQ” in data set [2] (setting [4]); 170 ng/mL in data set [2] (setting [6]); 137 ng/mL in data set [2] (setting [7]); 361 ng/mL in data set [2] (setting [8]); 832 ng/mL in data set [2] (setting [9]); 1170 ng/mL in data set [2] (setting [10]). Moreover, the “Plasma concentration, Median” value in data set [2] (setting [11]) is reported as 1465 ng/mL; in data set [2] (setting [12]) it was “LLOQ”; in data set [2] (setting [13]), 1740 ng/mL; in data set [2] (setting [14]) it was 2685 ng/mL; in data set [2] (setting [15]) it was 2230 ng/mL; in data set [2] (setting [16]) it was 70.8 ng/mL. Besides, the “Plasma concentration, Median” value in data set [2] (setting [17]) is listed as 113 ng/mL; in data set [2] (setting [18]) it was 293 ng/mL; in data set [2] (setting [19]) it was 1460 ng/mL; in data set [2] (setting [20]), 2800 ng/mL; in data set [2] (setting [21]), 1955 ng/mL. For the same compound, the “Plasma concentration, Min” value was “LLOQ” in data set [2] (setting [4]); 810 ng/mL in data set [2] (setting [5]); 52.9 ng/mL in data set [2] (setting [6]); 115 ng/mL in data set [2] (setting [7]); 228 ng/mL in data set [2] (setting [8]); 570 ng/mL in data set [2] (setting [9]). Also, the “Plasma concentration, Min” value was 814 ng/mL in data set [2] (setting [10]); 893 ng/mL in data set [2] (setting [11]); “LLOQ” in data set [2] (setting [12]); 835 ng/mL in data set [2] (setting [13]); 1490 ng/mL in data set [2] (setting [14]); 1440 ng/mL in data set [2] (setting [15]). The “Plasma concentration, Min” value in data set [2] (setting [16]) came out at 35.9 ng/mL; in data set [2] (setting [17]), 58.2 ng/mL; in data set [2] (setting [18]), 145 ng/mL; in data set [2] (setting [19]), 903 ng/mL; in data set [2] (setting [20]) it was 1630 ng/mL; in data set [2] (setting [21]), 1350 ng/mL. For the same compound, in data set [2] (Concomitant, 50 mg BID, First consolidation cycle, day 29.5), the “Plasma concentration, individual values (n = 2; merged Median/Min/Max cell)” value is 809 ng/mL and 2990 ng/mL. Also, the “Half-life (qualitative)” value in data set [2] (midostaurin 50 mg twice daily, stable levels between dosing treatment phases) is given as “long half-life”.
Consider `CN(C(=O)c1ccccc1)[C@@H]1C[C@H]2O[C@@](C)([C@@H]1O)n1c3ccccc3c3c4c(c5c6ccccc6n2c5c31)C(=O)NC4` [CGP62221], for which the “Inhibition of FLT3 in vitro” value in data set [1] is on record as “capable of inhibiting FLT3 in vitro”.
In the case of `Nc1ccn([C@@H]2O[C@H](CO)[C@@H](O)[C@@H]2O)c(=O)n1` [cytarabine], under “data not shown”, the “Pharmacokinetic interaction with midostaurin” value is “No interaction”.
For `COc1cccc2c1C(=O)c1c(O)c3c(c(O)c1C2=O)C[C@@](O)(C(C)=O)C[C@@H]3O[C@H]1C[C@H](N)[C@H](O)[C@H](C)O1` [daunorubicin], under setting [22], the “CL, Mean ± SD” value is listed as 269 ± 130 L/h/m^2; the “CL, Median” value worked out at 283 L/h/m^2; the “Vz, Mean ± SD” value is on record as 717 ± 266 L/m^2; the “Vz, Median” value is recorded as 694 L/m^2. In addition, under setting [23], the “C24 h, Mean ± SD” value is listed as 0 ± 0 ng/mL; the “CL, Mean ± SD” value was found to be 330 ± 226 L/h/m^2; the “CL, Median” value is 270 L/h/m^2; the “Vz, Mean ± SD” value was determined as 946 ± 696 L/m^2. Moreover, the “Vz, Median” value under setting [23] was 775 L/m^2. The “C24 h, Median” value (Sequential midostaurin n = 13, cycle 1, day 1, LLOQ is 5 ng/mL) was “LLOQ”. The “Effect of midostaurin on clearance” value (midostaurin 50 mg twice daily) is “does not seem to be affected”. Further, the “C24 h, Concomitant/sequential midostaurin” value (ratio, cycle 1, day 1) is on record as 17.4/LLOQ. Also, in data set [3] (setting [24]), the AUC(0-t) (usually the area under the concentration-time curve up to a stated or last time point) turned out to be 373 ng·h/mL, the concentration at 24 h was 17.4 ng/mL, the peak level (Cmax) was 98 ng/mL and the Tmax (commonly the time from dosing to the highest level) turned out to be 30 min. Moreover, in data set [3] (setting [25]), the AUC(0-t) turned out to be 267 ng·h/mL, the highest level (Cmax) was 229 ng/mL and the Tmax turned out to be 36 min. In data set [3] (setting [26]), the area under the curve AUC(0-t) came to 189 ng·h/mL; the concentration at 24 h came out at 17.4 ng/mL; the maximum concentration (Cmax) – broadly, the maximum level reached in the sampled fluid or tissue – was 89 ng/mL; the time to peak (Tmax) is 30 min. Also, in data set [3] (setting [27]), the AUC(0-t) amounted to 159 ng·h/mL, the Cmax stood at 76 ng/mL and the Tmax came to 30 min.

(Values after article PMC4118284 (Leukemia, 2012).)
